According to ChEMBL document CHEMBL1201862, “PubChem BioAssay data set” (2004):
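In this assay, cells in 96-well plates receive the compound at five concentrations for 48 hours. Endpoints are linearly interpolated between the surrounding concentrations. GI50 is the concentration that inhibits growth by half.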 Active and inactive are the calls of the source. Rule as the data show it: active = GI50 up to about 1.1 µM and inactive = higher.

How the values were obtained:
Assay in all cases: NCI anticancer screen, dose series, 48 h
ACHN = tested on: ACHN
BT-549 = tested on: BT-549
CAKI-1 = tested on: CAKI-1
DU-145 = tested on: DU-145
EKVX = tested on: EKVX
HL-60 = tested on: HL-60
HOP-62 = tested on: HOP-62
Hs-578T = tested on: Hs-578T
M14 = tested on: M14
MDA-N = tested on: MDA-N
NCI-H522 = tested on: NCI-H522
OVCAR-3 = tested on: OVCAR-3
OVCAR-8 = tested on: OVCAR-8
SF-295 = tested on: SF-295
SK-OV-3 = tested on: SK-OV-3
SN12C = tested on: SN12C
SR = tested on: SR
UACC-257 = tested on: UACC-257
UACC-62 = tested on: UACC-62
UO-31 = tested on: UO-31

Structure (SMILES) | GI50 (ACHN) | GI50 (BT-549) | GI50 (CAKI-1) | GI50 (DU-145) | GI50 (EKVX) | GI50 (HL-60) | GI50 (HOP-62) | GI50 (Hs-578T) | GI50 (M14) | GI50 (MDA-N) | GI50 (NCI-H522) | GI50 (OVCAR-3) | GI50 (OVCAR-8) | GI50 (SF-295) | GI50 (SK-OV-3) | GI50 (SN12C) | GI50 (SR) | GI50 (UACC-257) | GI50 (UACC-62) | GI50 (UO-31)
COc1cc2c(cc1O)CC1c3c(cc(O)c(OC)c3-2)CCN1C (stereo not given) | > 100 µM (inactive) | > 100 µM (inactive) | > 100 µM (inactive) | > 100 µM (inactive) | > 100 µM (inactive) | 91.4 µM (inactive) | > 100 µM (inactive) | > 100 µM (inactive) | > 100 µM (inactive) | > 100 µM (inactive) | 56.4 µM (inactive) | 98.9 µM (inactive) | > 100 µM (inactive) | > 100 µM (inactive) | > 100 µM (inactive) | > 100 µM (inactive) | > 59.7 µM (inactive) | > 100 µM (inactive) | > 100 µM (inactive) | > 100 µM (inactive)
CN(C)Cc1cc(Cl)c(O)c(CN(C)C)c1 | > 100 µM (inactive) | > 100 µM (inactive) | > 100 µM (inactive) | > 100 µM (inactive) | > 100 µM (inactive) | > 100 µM (inactive) | > 100 µM (inactive) | > 100 µM (inactive) | > 100 µM (inactive) | > 100 µM (inactive) | > 100 µM (inactive) | > 100 µM (inactive) | > 100 µM (inactive) | > 100 µM (inactive) | > 100 µM (inactive) | > 100 µM (inactive) | > 100 µM (inactive) | > 100 µM (inactive) | > 100 µM (inactive) | > 100 µM (inactive)
Fc1ccc(NC(=S)SCc2ccc3c(c2)OCO3)cc1F | 19.7 µM (inactive) | 21.1 µM (inactive) | 27.7 µM (inactive) | 31.6 µM (inactive) | 11.7 µM (inactive) | 16.7 µM (inactive) | 39.5 µM (inactive) | 26.9 µM (inactive) | 20.4 µM (inactive) | 17.6 µM (inactive) | 16.8 µM (inactive) | 29.2 µM (inactive) | 18.3 µM (inactive) | 18.4 µM (inactive) | 53.6 µM (inactive) | 16.3 µM (inactive) | 17.4 µM (inactive) | 21.1 µM (inactive) | 14.2 µM (inactive) | 17 µM (inactive)
CC(C)=CCC[C@@H](C)C1=C(Nc2ccccc2F)C(=O)C(C)=C(O)C1=O | 3.5 µM (inactive) | 8.09 µM (inactive) | 5.83 µM (inactive) | 9.35 µM (inactive) | 5.12 µM (inactive) | 1 µM (active) | 9.98 µM (inactive) | 5.31 µM (inactive) | 14.2 µM (inactive) | 10.6 µM (inactive) | 4.18 µM (inactive) | 4.51 µM (inactive) | 3.49 µM (inactive) | 3.65 µM (inactive) | 6.47 µM (inactive) | 6.97 µM (inactive) | 11 µM (inactive) | 10.1 µM (inactive) | 4.81 µM (inactive) | 4.45 µM (inactive)
COc1ccc(C(OCC2OC(n3cc(C)c(=O)[nH]c3=O)CC2n2cc(Cn3cc(F)c(=O)[nH]c3=O)nn2)(c2ccccc2)c2ccccc2)cc1 (stereo not given) | 10.8 µM (inactive) | 11.1 µM (inactive) | 8.38 µM (inactive) | 6.44 µM (inactive) | 5.65 µM (inactive) | 2.63 µM (inactive) | 4.1 µM (inactive) | 6.97 µM (inactive) | 4.58 µM (inactive) | 1.54 µM (inactive) | 3.77 µM (inactive) | 5.26 µM (inactive) | 9.57 µM (inactive) | 3.26 µM (inactive) | 5.3 µM (inactive) | 5.71 µM (inactive) | 2.51 µM (inactive) | 11.5 µM (inactive) | 11 µM (inactive) | 9.73 µM (inactive)
CCC1NC(=O)C1NC(=O)OC (stereo not given) | > 100 µM (inactive) | > 100 µM (inactive) | > 100 µM (inactive) | > 100 µM (inactive) | > 100 µM (inactive) | > 100 µM (inactive) | > 100 µM (inactive) | > 100 µM (inactive) | > 100 µM (inactive) | > 100 µM (inactive) | > 100 µM (inactive) | > 100 µM (inactive) | > 100 µM (inactive) | > 100 µM (inactive) | > 100 µM (inactive) | > 100 µM (inactive) | > 100 µM (inactive) | > 100 µM (inactive) | > 100 µM (inactive) | > 100 µM (inactive)
CCCCC[C@H]1CC=CC(=O)O1 | 7.13 µM (inactive) | 4.06 µM (inactive) | 2.55 µM (inactive) | 5.83 µM (inactive) | 17.1 µM (inactive) | 2.88 µM (inactive) | 17.3 µM (inactive) | 7.71 µM (inactive) | 11.5 µM (inactive) | 5.02 µM (inactive) | 2.78 µM (inactive) | 3.5 µM (inactive) | 8.28 µM (inactive) | 10.4 µM (inactive) | 10.8 µM (inactive) | 6.68 µM (inactive) | 2.03 µM (inactive) | 12.1 µM (inactive) | 10.5 µM (inactive) | 11 µM (inactive)
CN1CCN(c2cc3[nH]c(-c4ccc(Cl)cc4)nc3cc2F)CC1 | 12.5 µM (inactive) | 15.8 µM (inactive) | 19.5 µM (inactive) | 22.1 µM (inactive) | 22.2 µM (inactive) | > 10 µM (inactive) | 16.8 µM (inactive) | 16.1 µM (inactive) | 2.84 µM (inactive) | 12.8 µM (inactive) | 15.6 µM (inactive) | 11.8 µM (inactive) | 26.9 µM (inactive) | 15.2 µM (inactive) | 22.2 µM (inactive) | 26.7 µM (inactive) | 24.1 µM (inactive) | 10.8 µM (inactive) | 4.32 µM (inactive) | 7.1 µM (inactive)
CCN1CCC(O)(/C=C/c2ccc(C)cc2C)C(C(=O)/C=C/c2ccc(C)cc2C)C1 (stereo not given) | 1.83 µM (inactive) | 2.79 µM (inactive) | 5.09 µM (inactive) | 4.59 µM (inactive) | 2.74 µM (inactive) | 3.35 µM (inactive) | 2.89 µM (inactive) | 2.09 µM (inactive) | 3.55 µM (inactive) | 2.2 µM (inactive) | 1.84 µM (inactive) | 2.53 µM (inactive) | 2.09 µM (inactive) | 2.08 µM (inactive) | 9.57 µM (inactive) | 2.72 µM (inactive) | 2.37 µM (inactive) | 4.99 µM (inactive) | 3.41 µM (inactive) | 2.35 µM (inactive)
O=c1[nH]nc(-c2ccc([N+](=O)[O-])cc2)n1/N=C/c1ccc([N+](=O)[O-])cc1 | > 100 µM (inactive) | > 100 µM (inactive) | > 100 µM (inactive) | > 100 µM (inactive) | > 100 µM (inactive) | 30.4 µM (inactive) | > 100 µM (inactive) | > 100 µM (inactive) | > 100 µM (inactive) | > 100 µM (inactive) | 73.3 µM (inactive) | > 100 µM (inactive) | > 100 µM (inactive) | > 100 µM (inactive) | > 100 µM (inactive) | > 100 µM (inactive) | 52 µM (inactive) | > 100 µM (inactive) | 71.4 µM (inactive) | > 100 µM (inactive)
CC(C)(O)C1CC[C@]2(C)CC[C@]3(C)[C@H](CC[C@@H]4[C@@]5(C)CC[C@H](O)C(C)(C)[C@@H]5CC[C@]43C)[C@@H]12 (stereo not given in full) | 22.1 µM (inactive) | 29.2 µM (inactive) | 22.1 µM (inactive) | 23.2 µM (inactive) | 23.2 µM (inactive) | > 100 µM (inactive) | 25.8 µM (inactive) | 22.7 µM (inactive) | 36.3 µM (inactive) | 47.8 µM (inactive) | 29.1 µM (inactive) | 24.1 µM (inactive) | 32.7 µM (inactive) | 25.4 µM (inactive) | 23.1 µM (inactive) | 81.3 µM (inactive) | 30.5 µM (inactive) | 15.4 µM (inactive) | 39 µM (inactive) | 58.2 µM (inactive)
